According to patent US6326465A, “Immunomodulatory polypeptides derived from the invariant chain of MHC class II” (The Johns Hopkins University, priority 1998, dated 2001):

Assays:
[1] = test system: Lewis syngeneic PHA blasts; experiment: Lysis of PHA lymphoblast target cells by syngeneic GVHD effector T cells; assay type: cell-based, rat; conditions: target cells loaded with 10 uM; versus diluent treated target cells
Protocol: FIG. 1. Graph showing comparison of percent specific lysis conferred by truncated variants of CLIP. Lewis syngeneic PHA blasts were force-loaded with the truncated variants of CLIP (10 μmol/L, 1 hr, 4° C.) prior to assay. Effector T cells (nylon wool nonadherent) were derived from animals with syngeneic GVHD that were clonally expanded in thymectomized secondary Lewis recipients.
Truncated peptides from the rat MHC Class II invariant chain V0 : (sequence aa 82-103 […] (SEQ ID NO:1)), V1: aa 90-104 (SEQ ID NO:2), V2: 86-100 (SEQ ID NO:3), V3: 90-100(SEQ ID NO:4) were synthesized by Quality Controlled Biochemicals Co. (Hopkinton, Ma.) and purified by HPLC.^15,23 The peptides (>92% purity) were dissolved in RPMI 1640 prior to use. Force loading of CLIP was accomplished by incubating the cells in 10 μM of the peptide for 1 hr. at 4° C. […] Antibody was prepared to the CLIP peptide by Quality Controlled Biochemicals Co. The peptides were conjugated to keyhole limpet hemocyanin (KLH). Rabbits were immunized with the peptide-KLH conjugate. The antibody was affinity purified using peptide conjugated sepharose matrix columns.
We first evaluated whether CLIP in rats is recognized by the autoreactive T cells associated with CsA-induced syngeneic GVHD by comparing the lysis of target cells after various pretreatment conditions.
Target cells were loaded with the CLIP variants (10 uM) and evaluated for […]

[2] = test system: tumor cells; experiment: Cytokine modulation of CsA-induced SGVHD in the rat model; assay type: in vivo; conditions: for cure of animals: animals given 5×10^3 tumor cells; for enhancement of the antitumor effect of SGVHD: rat model
[3] = test system: target cells; assay type: cell-based, rat
[4] = test system: CRL 1662 myeloma cells; experiment: Antitumor activity after adoptive transfer of syngeneic GVHD effector T cells; assay type: in vivo, rat; conditions: with syngeneic GVHD effector cells; […]10^4 CRL 1662 cells; cytokines for ten days
Protocol: Nylon wool nonadherent spleen cells (50×10^6) from Lou M animals with syngeneic GVHD were adoptively transferred into secondary Lou M recipients (irradiated, bone marrow reconstituted) challenged with 2.5×10^4 CRL 1662 myeloma cells. […] Survival was assessed and log tumor cell kill was estimated from dose response studies (see Table 6).

| Substance | cure of animals [2] | enhancement of the antitumor effect of SGVHD [2] | other results |
| --- | --- | --- | --- |
| KPCSP(R) | – | – | Enhancement of Target Cell Recognition [1]: +++ (enhancement representing at least a >25% increase in specific killing) |
| interferon-α | about half | 1-2 logs | – |
| staphylococcal enterotoxin β [SEB] | – | – | ability of effector T lymphocytes to recognize and lyse the target cells [3]: completely inhibited; preventing recognition and lysis [3]: ineffective |
| γ-interferon: cytokine, 50,000 U/d | about half | 1-2 logs | Estimated Log Tumor Cell Kill [4]: 2.5-3.0 |
